Measurements published in ChEMBL document CHEMBL1139310, “Lead identification to generate 3-cyanoquinoline inhibitors of insulin-like growth factor receptor (IGF-1R) for potential use in cancer treatment” (Bioorg Med Chem Lett, 2009).
Converted amounts (≈) assume the structure as drawn.

Key:
[1] = target: Insulin-like growth factor 1 receptor (Homo sapiens, UniProt P08069); experiment: Inhibition of GST-IGF1R
[2] = Aqueous solubility at pH 7.4; type: physicochemical
[3] = Selectivity ratio of IC50 for GST-IR to IC50 for GST-IGF1R

Insulin-like growth factor 1 receptor, sequence (P08069 31-736 limits assumed): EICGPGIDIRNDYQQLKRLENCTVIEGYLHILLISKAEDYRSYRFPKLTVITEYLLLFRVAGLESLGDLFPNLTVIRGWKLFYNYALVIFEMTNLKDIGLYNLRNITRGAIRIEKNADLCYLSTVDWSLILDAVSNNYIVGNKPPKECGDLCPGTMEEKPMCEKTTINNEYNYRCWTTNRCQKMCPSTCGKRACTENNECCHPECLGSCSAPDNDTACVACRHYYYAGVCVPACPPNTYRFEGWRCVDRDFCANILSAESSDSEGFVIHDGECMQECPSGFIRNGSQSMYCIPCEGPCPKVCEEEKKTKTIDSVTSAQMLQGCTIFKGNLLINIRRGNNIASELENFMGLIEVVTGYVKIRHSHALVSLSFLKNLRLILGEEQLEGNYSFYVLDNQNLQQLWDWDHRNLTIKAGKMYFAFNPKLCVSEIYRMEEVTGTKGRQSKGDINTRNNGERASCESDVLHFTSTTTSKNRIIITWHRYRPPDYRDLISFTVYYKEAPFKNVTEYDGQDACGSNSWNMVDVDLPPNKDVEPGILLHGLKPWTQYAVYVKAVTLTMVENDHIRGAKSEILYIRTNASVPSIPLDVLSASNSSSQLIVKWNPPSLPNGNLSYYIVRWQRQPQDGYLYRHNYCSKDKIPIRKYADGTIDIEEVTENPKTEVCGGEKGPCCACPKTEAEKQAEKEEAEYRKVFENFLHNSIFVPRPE
Insulin-like growth factor 1 receptor, sequence (P08069 741-1367 limits assumed): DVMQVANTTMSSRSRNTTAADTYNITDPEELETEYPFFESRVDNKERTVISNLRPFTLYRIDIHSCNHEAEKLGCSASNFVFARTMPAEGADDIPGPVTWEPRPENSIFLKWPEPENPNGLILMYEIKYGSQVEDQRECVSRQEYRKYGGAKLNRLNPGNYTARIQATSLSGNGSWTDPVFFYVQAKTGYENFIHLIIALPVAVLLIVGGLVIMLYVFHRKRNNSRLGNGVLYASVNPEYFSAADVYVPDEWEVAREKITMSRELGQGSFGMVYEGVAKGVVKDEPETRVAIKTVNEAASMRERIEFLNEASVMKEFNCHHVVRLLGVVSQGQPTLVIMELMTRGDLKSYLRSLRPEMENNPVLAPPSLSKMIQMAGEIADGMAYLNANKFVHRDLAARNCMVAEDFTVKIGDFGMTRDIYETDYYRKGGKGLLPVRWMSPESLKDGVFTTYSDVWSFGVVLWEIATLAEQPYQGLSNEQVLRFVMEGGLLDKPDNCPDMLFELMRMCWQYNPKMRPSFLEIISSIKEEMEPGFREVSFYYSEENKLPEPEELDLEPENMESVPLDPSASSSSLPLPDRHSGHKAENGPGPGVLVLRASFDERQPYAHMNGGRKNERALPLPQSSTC

Row | IC50 [1] [nM] | solubility [2] [µg/mL] | Ratio IC50 [3] | SMILES
1 | 16 | – | – | CCn1c(Sc2ccc(Nc3c(C#N)cnc4cc(NCCCN5CCN(C)CC5)c(OC)cc34)cc2Cl)nc(C)c1C
2 | 26 | – | – | CCn1c(Sc2ccc(Nc3c(C#N)cnc4cc(NCCCN(CCO)CCO)c(OC)cc34)cc2Cl)nc(C)c1C
3 | 13700 | – | – | CCn1c(Sc2ccc(Nc3c(C#N)cnc4cc(NCCCc5ccccc5)c(OC)cc34)cc2Cl)nc(C)c1C
4 | 9 | 2000 (≈ 3.15 mM) | 0.17 | CCN1CCN(CCCOc2cc3ncc(C#N)c(Nc4ccc(Sc5nc(C)c(C)n5CC)c(Cl)c4)c3cc2OC)CC1
5 | 15 | – | – | CCn1c(Sc2ccc(Nc3c(C#N)cnc4cc(OCCCN5CCOCC5)c(OC)cc34)cc2Cl)nc(C)c1C
6 | 135 | – | – | CCC(=O)C1CCN(CCCOc2cc3ncc(C#N)c(Nc4ccc(Sc5nc(C)c(C)n5CC)c(Cl)c4)c3cc2OC)CC1
7 | 1000 | – | – | COc1cc2c(Nc3ccc(Sc4nccn4C)cc3)c(C#N)cnc2cc1OCCCN1CCOCC1
8 | 151 | – | – | COc1cc2c(Nc3ccc(Sc4nccn4C)c(Cl)c3)c(C#N)cnc2cc1NCCCN(C)C
9 | 17 | – | – | CCOC(=O)NN1CCN(CCCOc2cc3ncc(C#N)c(Nc4ccc(Sc5nc(C)c(C)n5CC)c(Cl)c4)c3cc2OC)CC1
10 | 600 | – | – | COc1cc2c(Nc3ccc(Sc4nccn4C)c(Cl)c3)c(C#N)cnc2cc1N1CCN(C)CC1
11 | 31 | – | – | CCn1c(Sc2ccc(Nc3c(C#N)cnc4cc(OCCCNS(C)(=O)=O)c(OC)cc34)cc2Cl)nc(C)c1C
12 | 66 | – | – | COc1cc2c(Nc3ccc(Sc4nccn4C)c(Cl)c3)c(C#N)cnc2cc1OCCCN1CCOCC1
13 | 45 | – | – | CCNC(=O)N1CCN(CCCOc2cc3ncc(C#N)c(Nc4ccc(Sc5nc(C)c(C)n5CC)c(Cl)c4)c3cc2OC)CC1
14 | 1090 | – | – | COc1cc2c(Nc3ccc(Sc4ccccc4O)cc3)c(C#N)cnc2cc1OCCCN1CCOCC1
15 | 32 | – | – | CCC1CCCCN1CCCOc1cc2ncc(C#N)c(Nc3ccc(Sc4nc(C)c(C)n4CC)c(Cl)c3)c2cc1OC (stereo not given)
16 | 20 | – | – | CCn1c(Sc2ccc(Nc3c(C#N)cnc4cc(NCCCN5CCOCC5)c(OC)cc34)cc2Br)nc(C)c1C
17 | 150 | – | – | COc1cc2c(Nc3ccc(Sc4nccn4C)c(Cl)c3)c(C#N)cnc2cc1N(C)CCCN(C)C

Row | SMILES | IC50 [1] [nM] | solubility [2] [µg/mL] | Ratio IC50 [3]
18 | COc1cc2c(Nc3ccc(Sc4ccccn4)c(Cl)c3)c(C#N)cnc2cc1OCCCN1CCOCC1 | > 10000 | – | –
